The MIC is the least concentration at which growth counts as inhibited. Read a low MIC as greater potency.

These results are taken from patent publication US20100234348A1, “COMPOSITIONS AND METHODS FOR POTENTIATING ANTIBIOTIC ACTIVITY” (TRUSTEES OF BOSTON UNIVERSITY, priority 2006, published 2010).

≈ marks a conversion by molar mass, not a printed value.

The test system of the experiment is quinolone resistant strain laboratory S7. Nature of the experiment: Growth of quinolone resistant strain S7 with ciprofloxacin and CB101 forms. As to conditions: Staphylococcus. In kind it is cell-based. How it is done:
The quinolone resistant strain laboratory S7 was tested for growth in the presence of ciprofloxacin at 0.5 μg/mL (MIC at 1 μg/mL) with 20 μg/mL of CB101 (racemic mixture), the (+) enantiomeric form of CB101 or the (−) enantiomeric form of CB101.

In turn, `O=C(O)c1cn(C2CC2)c2cc(N3CCNCC3)c(F)cc2c1=O` [ciprofloxacin] showed an MIC of 1 µg/mL (≈ 3.02 µM).
